Assay results published in US20060241145A1, “Piperidine derivative crystal, process for producing the same, and use” (priority 2005, published 2006).
Counter-ions that a name gives are not always drawn.

What was measured:
substance P receptor = molecular target: T1, substance P receptor (Homo sapiens, UniProt P25103); experiment: Radioligand receptor binding inhibitory activity (binding inhibitory activity using receptor from human lymphoblast cells (IM-9)); conditions: 125I-BHSP (substance P labeled with [125I]), receptor from IM-9 cells, 25° C. 30 min
T1 construct: The receptors were prepared from human lymphoblast cells (IM-9); endogenous in cells; host or cells: IM-9 human lymphoblast cells (membrane preparation)
T1 sequence (P25103 whole entry): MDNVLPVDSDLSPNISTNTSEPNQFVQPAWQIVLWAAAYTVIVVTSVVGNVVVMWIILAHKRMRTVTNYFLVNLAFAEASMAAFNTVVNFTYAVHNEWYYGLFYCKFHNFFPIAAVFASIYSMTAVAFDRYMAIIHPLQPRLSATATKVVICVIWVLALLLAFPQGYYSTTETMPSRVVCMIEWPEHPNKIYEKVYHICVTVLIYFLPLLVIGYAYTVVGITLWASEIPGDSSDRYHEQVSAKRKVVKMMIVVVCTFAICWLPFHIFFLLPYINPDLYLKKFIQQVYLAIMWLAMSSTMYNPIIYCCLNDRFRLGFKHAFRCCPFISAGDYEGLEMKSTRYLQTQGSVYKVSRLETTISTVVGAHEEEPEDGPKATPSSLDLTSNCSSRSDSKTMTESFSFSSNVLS
Method: Radioligand receptor binding inhibitory activity (Binding inhibitory activity using receptor from human lymphoblast cells (IM-9))
The method of M. A. Cascieri et al., “Molecular Pharmacology 42, p. 458 (1992)” was modified and used. The receptors were prepared from human lymphoblast cells (IM-9). IM-9 cells (2×10^5 cells/mL) were incubated for 3 days (one liter), which were then subjected to centrifuge for 5 min. at 500×G to obtain cell pellets. The obtained pellets were washed once with phosphate buffer (Flow Laboratories, CAT. No. 28-103-05), which were then homogenized using Polytron homogenizer (“Kinematika”, Germany) in 30 mL of 50 mM Tris-HCl buffer (pH 7.4) containing 120 mM sodium chloride, 5 mM potassium chloride, 2 μg/mL chymostatin, 40 μg/mL bacitracin, 5 μg/mL phosphoramidon, 0.5 mM phenylmethylsulfonyl fluoride, 1 mM ethylenediamine tetra-acetate, which was subjected to centrifuge at 40,000×G for 20 min. The residue was washed twice with 30 mL of the buffer, which was then preserved frozen (−80° C.) as a specimen of the receptors.
The specimen was suspended in a reaction buffer (50 mM Tris-HCl buffer (pH 7.4), 0.02% bovine serum albumin, 1 mM phenylmethylsulfonyl fluoride, 2 μg/mL chymostatin, 40 μg/mL bacitracin and 3 mM manganese chloride) to have protein in the concentration of 0.5 mg/mL of protein and 100 μL portion of the suspension was used in the reaction. After addition of the sample and ^125I-BHSP (0.46 KBq), the reaction was allowed to proceed in 0.2 mL of reaction buffer at 25° C. for 30 min. The amount of nonspecific binding was determined by adding substance P at a final concentration of 2×10^−6 M.
After the reaction, using a cell harvester (290 PHD, Cambridge Technology, Inc, U.S.A.), the reaction solution was filterd through a glass filter (GF/B, Whatman, U.S.A.), which was immersed in 0.1% polyethyleneimine for 24 hrs. and dried. After washing three times with 250 μL of 50 mM Tris-HCl buffer (pH 7.4) containing 0.02% bovine serum albumin, the radioactivity remaining on the filter was determined with a gamma counter.
The antagonistic activity of each compound obtained in Examples was determined in terms of the concentration necessary to cause 50% inhibition (IC50 value) under the above-described conditions, and the results were shown in Table 9.
The radio ligand means substance P labeled with [^125I].

[1] = test system: urethane anesthetized male guinea pigs; experiment: Bladder capacity increasing action in urethane anesthetized guinea pigs; assay type: in vivo, guinea pig; conditions: for changes in bladder capacity (vs. before administration, %) / changes in voiding pressure (vs. before administration, %): mean ± standard error; for effect on bladder capacity (in words) / effect on voiding pressure (in words): intravenous, summary of Table 10
Description: Bladder Capacity Increasing Activity of Tachykinin Receptor Antagonist, Oxybutynin and Tolterodine (Bladder Capacity Increasing Action in Urethane Anesthetized Guinea Pigs)
A urinary frequency/urinary incontinence suppressing effect of a substance having antagonistic action for tachykinin receptors was shown in terms of the ability to increase bladder capacity in urethane anesthetized male guinea pigs and compared with that of oxybutynin and tolterodine, which are therapeutic drugs for overactive bladder. Using male guinea pig under anesthesia, after emptying the bladder by suction, saline was infused into the bladder at a constant rate (0.3 mL/min.) until voiding. This procedure was repeated to confirm stable bladder capacity (amount of saline injected before induction of voiding). After confirming a stable response, a compound dissolved in DMSO was intravenously administered and the action was measured. Changes in the bladder capacity and voiding pressure after drug administration were measured.

Work on `COc1ccc(-n2nnnc2C(F)(F)F)cc1CN[C@H]1CCN(C(=O)C(O)NC(C)=O)C[C@H]1c1ccccc1` (single isomer, unassigned) [Example 12] yielded an IC50 (substance P receptor) of 0.016 nM.
`COc1ccc(-n2nnnc2C(F)(F)F)cc1CN[C@H]1CCN(C(=O)C(O)NC(C)=O)C[C@H]1c1ccccc1` (single isomer, unassigned) [Example 13] gave an IC50 (substance P receptor) of 0.062 nM.
`COc1ccc(-n2nnnc2C(F)(F)F)cc1CN[C@H]1CCN(C(=O)CNC=O)C[C@H]1c1ccccc1` [Example 5, {2-[(3R,4S)-4-({2-methoxy-5-[5-(trifluoromethyl)-1H-tetrazol-1-yl]benzyl}amino)-3-phenylpiperidin-1-yl]-2-oxoethyl}formamide] gave an IC50 (substance P receptor) of 0.017 nM.
`COc1ccc(-n2nnnc2C(F)(F)F)cc1CN[C@H]1CCN(C(C)=O)C[C@H]1c1ccccc1` [Example 6, (3R,4S)-1-acetyl-N-{2-methoxy-5-[5-(trifluoromethyl)-1H-tetrazol-1-yl]benzyl}-3-phenylpiperidine-4-amine monohydrochloride] was tested, and the IC50 (substance P receptor) was 0.026 nM.
With `COc1ccc(-n2nnnc2C(F)(F)F)cc1CN[C@H]1CCN(C(=O)CN2C(=O)CCC2=O)C[C@H]1c1ccccc1` [Example 7, 1-{2-[(3R,4S)-4-({2-methoxy-5-[5-(trifluoromethyl)-1H-tetrazol-1-yl]benzyl}amino)-3-phenylpiperidin-1-yl]-2-oxoethyl}pyrrolidine-2,5-dione monohydrochloride] the IC50 (substance P receptor) was 0.015 nM.
In the case of `COc1ccc(-n2nnnc2C(F)(F)F)cc1CN[C@H]1CCN(C(=O)CS(C)(=O)=O)C[C@H]1c1ccccc1` [Example 8, (3R,4S)-N-{2-methoxy-5-[5-(trifluoromethyl)-1H-tetrazol-1-yl]benzyl}-1-[(methylsulfonyl)acetyl]-3-phenylpiperidine-4-amine monohydrochloride], the IC50 (substance P receptor) is reported as 0.022 nM.
`CCC(=O)NCC(=O)N1CC[C@H](NCc2cc(-n3nnnc3C(F)(F)F)ccc2OC)[C@H](c2ccccc2)C1` [Example 9, N-{2-[(3R,4S)-4-({2-methoxy-5-[5-(trifluoromethyl)-1H-tetrazol-1-yl]benzyl}amino)-3-phenylpiperidin-1-yl]-2-oxoethyl}propanamide monohydrochloride] was tested, and the IC50 (substance P receptor) was 0.012 nM.
In the case of `COc1ccc(-n2nnnc2C(F)(F)F)cc1CN[C@H]1CCN(C(=O)C2CCNCC2)C[C@H]1c1ccccc1` [Example 10, (3R,4S)-N-(2-methoxy-5-[5-(trifluoromethyl)-1H-tetrazol-1-yl]benzyl)-3-phenyl-1-(piperidin-4-ylcarbonyl)piperidine-4-amine dihydrochloride], the IC50 (substance P receptor) is reported as 0.016 nM.
`COc1ccc(-n2nnnc2C(F)(F)F)cc1CN[C@H]1CCN(C(=O)C2CCN(S(C)(=O)=O)CC2)C[C@H]1c1ccccc1` [Example 11, (3R,4S)-N-{2-methoxy-5-[5-(trifluoromethyl)-1H-tetrazol-1-yl]benzyl}-1-{[1-(methylsulfonyl)piperidin-4-yl]carbonyl}-3-phenylpiperidine-4-amine monohydrochloride] showed an IC50 (substance P receptor) of 0.021 nM.
In the case of `COc1ccc(-n2nnnc2C(F)(F)F)cc1CN[C@H]1CCN(C(=O)CNC(C)=O)C[C@H]1c1ccccc1` [Example 20, N-{2-[(3R,4S)-4-({2-methoxy-5-[5-(trifluoromethyl)-1H-tetrazol-1-yl]benzyl}amino)-3-phenylpiperidin-1-yl]-2-oxoethyl}acetamide], the IC50 (substance P receptor) is reported as 0.017 nM, the “changes in bladder capacity (vs. before administration, %)” value ([1]; dose 0.01 mg/kg intravenously) is reported as 5.8 ± 11.1% and the “changes in voiding pressure (vs. before administration, %)” value ([1]; dose 0.01 mg/kg intravenously) is reported as 10.1 ± 8.4%. The “changes in bladder capacity (vs. before administration, %)” value ([1]; dose 0.03 mg/kg intravenously) was 3.0 ± 8.2%, the “changes in voiding pressure (vs. before administration, %)” value ([1]; dose 0.03 mg/kg intravenously) was 18.5 ± 18.5% and the “changes in bladder capacity (vs. before administration, %)” value ([1]; dose 0.1 mg/kg intravenously) was 42.9 ± 6.0 %. For the same compound, the “changes in voiding pressure (vs. before administration, %)” value ([1]; dose 0.1 mg/kg intravenously) was 3.0 ± 8.0%, the “changes in bladder capacity (vs. before administration, %)” value ([1]; dose 0.3 mg/kg intravenously) was 71.2 ± 25.2 % and the “changes in voiding pressure (vs. before administration, %)” value ([1]; dose 0.3 mg/kg intravenously) was 4.9 ± 11.0%. The “effect on bladder capacity (in words)” value [1] was “increased the bladder capacity in a dose-dependent manner” and the “effect on voiding pressure (in words)” value [1] was “without affecting the voiding pressure”.
With `CCN(CC)CC#CCOC(=O)C(O)(c1ccccc1)C1CCCCC1` (centres unmarked) [oxybutynin] the “changes in bladder capacity (vs. before administration, %)” value ([1]; dose 0.1 mg/kg intravenously) was 1.8 ± 7.0%, the “changes in voiding pressure (vs. before administration, %)” value ([1]; dose 0.1 mg/kg intravenously) was 4.3 ± 7.5% and the “changes in bladder capacity (vs. before administration, %)” value ([1]; dose 0.3 mg/kg intravenously) was 19.3 ± 5.1 %. The “changes in voiding pressure (vs. before administration, %)” value ([1]; dose 0.3 mg/kg intravenously) was −11.6 ± 5.4%, the “changes in bladder capacity (vs. before administration, %)” value ([1]; dose 1 mg/kg intravenously) was 43.6 ± 7.7 % and the “changes in voiding pressure (vs. before administration, %)” value ([1]; dose 1 mg/kg intravenously) was −12.1 ± 8.8%. The “changes in bladder capacity (vs. before administration, %)” value ([1]; dose 3 mg/kg intravenously) was 36.8 ± 6.6 %, the “changes in voiding pressure (vs. before administration, %)” value ([1]; dose 3 mg/kg intravenously) was −6.0 ± 5.6% and the “effect on bladder capacity (in words)” value [1] was “significantly increased the bladder capacity”. The “effect on voiding pressure (in words)” value [1] was “showed lower voiding pressure”.
`Cc1ccc(O)c([C@H](CCN(C(C)C)C(C)C)c2ccccc2)c1` [tolterodine] was tested, and the “changes in bladder capacity (vs. before administration, %)” value ([1]; dose 1 mg/kg intravenously) was −3.4 ± 4.4%, the “changes in voiding pressure (vs. before administration, %)” value ([1]; dose 1 mg/kg intravenously) was 0.1 ± 5.7% and the “changes in bladder capacity (vs. before administration, %)” value ([1]; dose 3 mg/kg intravenously) was 14.8 ± 7.6%. The “changes in voiding pressure (vs. before administration, %)” value ([1]; dose 3 mg/kg intravenously) was −6.7 ± 6.5 %, the “changes in bladder capacity (vs. before administration, %)” value ([1]; dose 10 mg/kg intravenously) was 31.7 ± 9.1 % and the “changes in voiding pressure (vs. before administration, %)” value ([1]; dose 10 mg/kg intravenously) was −15.5 ± 4.6 %. The “effect on bladder capacity (in words)” value [1] was “significantly increased the bladder capacity” and the “effect on voiding pressure (in words)” value [1] was “voiding pressure lowering action of tolterodine was significant”.
